Experimental data reported in patent US20250347696A1, “SELF-ACTIVATING FÖRSTER RESONANCE ENERGY TRANSFER (saFRET) BIOSENSORS AND METHODS FOR MAKING AND USING THEM” (The Regents of the University of California, priority 2021, published 2025).
Substitutions are numbered along the chain they refer to. Entries after “also recorded” stand apart in the source; their conditions may differ. Read-outs that look alike come from different tables or passages of the source.

Tests used:
ZAP70 kinase = molecular target: T1, ZAP70 kinase (Homo sapiens, UniProt P43403); conditions: for inhibition of ZAP70 activity (FRET ratio change compared to solvent control): 10 μM, 40 minutes of incubation
T1 sequence (P43403 327-619): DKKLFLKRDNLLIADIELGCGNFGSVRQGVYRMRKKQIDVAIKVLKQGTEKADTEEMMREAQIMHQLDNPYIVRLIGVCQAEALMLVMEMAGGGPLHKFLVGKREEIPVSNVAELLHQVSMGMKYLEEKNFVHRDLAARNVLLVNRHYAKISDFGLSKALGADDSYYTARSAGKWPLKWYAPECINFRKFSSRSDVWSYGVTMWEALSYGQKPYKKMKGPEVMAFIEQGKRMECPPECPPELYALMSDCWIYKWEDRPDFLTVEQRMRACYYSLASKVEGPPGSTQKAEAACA
Method: (§1) We first screened a 96-member kinase inhibitor library to identify efficient inhibitors of ZAP70 kinase. […] After 40 minutes of incubation with inhibitors, the cells were imaged, and the FRET ratio changes of individual inhibitors compared to the solvent control were calculated to identify promising candidates after this primary endpoint screening (FIG. 5B-D). We further exploited a control biosensor with a kinase-dead domain (saFRETkd) for counter screening to eliminate false-positive hits due to auto-fluorescence or other non-specific effects^48.
• a, Schematics of the high throughput drug screening platform. First, the cells cultured in 96-well glass bottom plate were treated either with DMSO or inhibitors from the kinase inhibitor library. After 40 minutes of incubation, the cells were imaged, and the FRET ratio change compared to the control cell was calculated. […] Scale bars, 10 μm. • c, Summary of screening results. […] Error bars, mean±SD. • e, Counter screening using a mutant biosensor with a kinase-dead domain to subtract the noise engendered from non-specific fluorescence. […] Error bars, mean±SEM.
(§2) Firstly, we transfected HEK293 cells with optimized saFRET biosensor and established a stable cell line. […] HEK293 stable cell line was then cultured in 96 glass bottom wells for approximately 24 hours and then should be ready for high throughput screening (see FIG. 5A, Example 1). We tested this concept by screening an in house kinase inhibitor library (Cayman chemical inc.) and screened a […] kinase inhibitor library to identify efficient inhibitors of ZAP70 kinase. […] After 40 minutes of incubation with inhibitors, the cells were imaged, and the FRET ratio changes of individual inhibitors compared to the solvent control were calculated to identify promising candidates after this primary endpoint screening (see FIG. 5B-G, Example 1). We further exploited a control biosensor with a mutated-kinase dead domain (saFRETkd) for counter screening to eliminate false-positive hits due to auto-fluorescence or other non-specific effects (Simeonov and Davis 2004).

[1] = molecular target: T2, ZAP70 kinase domain (327-619) (Homo sapiens, UniProt P43403); assay: ZAP70 saFRET biosensor live-cell FRET imaging in HEK cells; type: cell-based; conditions: TAK-659 25 μM
T2 construct: The combination of ZAP70 kinase domain (327-619) and a substrate from LATY191; expressed in transfected cells; host or cells: HEK cells
T2 sequence (P43403 327-619): T1 sequence (P43403 327-619)
Description: To extend FRET-seq as a general platform to optimize different kinase FRET biosensors in mammalian cells, we further applied this technology to improve the ZAP70 kinase FRET biosensor. […] Similar to the Fyn saFRET biosensor, the FRET change of ZAP70 saFRET biosensor was dominated by the active kinase domain, as evidenced by the observations that the TAK-659-induced dynamic changes (FIG. 3 b,c) and phosphorylation (Supplementary FIG. 5a, or FIG. 11A) were abolished when the kinase domain was replaced by its kinase-dead version (K369A)^41.
Using the established platform for library screening and sequencing, the ZAP70 biosensor candidates selected via the four-dimensional plot were further ranked by the product of Ev (KAH) and Ev (KDL) (FIG. 3D-E). […] The dynamic range of FRET ratio of the biosensors containing […] (SEQ ID NO:113) or […] (SEQ ID NO:114) increased approximately 50% comparing to the parental one, when transiently expressed in HEK cells (FIG. 3G-H). As such, our FRET-seq platform can serve as a general high-throughput approach to engineer FRET biosensor from libraries and develop sensitive kinase biosensors. […]
To increase the specificity of the selected substrates, library with mutated kinase were included. […] The variants which satisfied all conditions were selected (FIG. 3D, Example 1), and their FRET ratio change upon TAK-659 treatment were measured by fluorescence microscope. […]

[2] = molecular target: T3, ZAP70 biosensor with kinase-dead domain (saFRETkd) (Homo sapiens, UniProt P43403, K369A); assay: ZAP70 saFRET biosensor with kinase-dead domain (saFRETkd), control / counter screening; type: cell-based; conditions: for TAK-659-induced FRET response of ZAP70 saFRET biosensor with kinase-dead domain: kinase-dead (K369A) domain, HEK cells
T3 construct: kinase 327-619 (both KA and KM) was chosen for generating the Zap70 biosensor substrate libraries; expressed in transfected cells; host or cells: HEK cells
T3 sequence (P43403 327-619 K369A): T1 sequence (P43403 327-619) with K43A
Method: as §1, §2

CD69 expression [3] = assay: CD69 expression by flow cytometry in T cells after anti-TCR stimulation; type: cell-based, human; conditions: inhibitor pre-treatment
Method: (§3) We tested the phosphorylation of LAT, a downstream substrate of ZAP70 kinase, and the activation of T cells with the top two identified inhibitors, staurosporine and AZD7762.
(§4) • a, Experimental scheme and timeline for experiments in b-d. The Jurkat T cells were pre-treated with inhibitors for 30 minutes before anti-TCR stimulation by anti-CD3/CD28 antibodies for 5 minutes. • b, Immunostaining images of pLAT (Y191) in Jurkat T cells with different inhibitor pre-treatments. Scale bars, 10 μm. • c, Quantification of pLAT (Y191) intensity of single cells in different groups. (n>150 for each group, One-way ANOVA, ****P<0.0001). Error bars, mean±SD. • d, Quantification of pZAP70 (Y493) intensity of single cells in different groups. (n>200 for each group, One-way ANOVA, ****P<0.0001). […] P116 cells with similar ZAP70-WT or ZAP70-R360P expressions were sorted and isolated for further analysis based on YPet intensity. • h, CD69 expression in P116 cells with or without the expression of ZAP70 (WT) and its mutant (R360P). • i, Quantification of pZAP70 (Y493) intensity of single cells in different P116 groups. […] Scale bars, 10 μm. • k, Quantification of pLAT (Y191) intensity of single cells in P116-ZAP70 R360P cells with different inhibitor pre-treatment. […]

[4] = system: phosphorylated LAT (Y191); assay: pLAT (Y191) immunostaining in Jurkat T cells after anti-CD3/CD28 stimulation; type: cell-based, human; conditions: inhibitor pre-treatment 30 minutes, anti-CD3/CD28 5 minutes
Method: as §3, §4

pZAP70 (Y493) [5] = assay: pZAP70 (Y493) immunostaining in Jurkat T cells after anti-CD3/CD28 stimulation; type: cell-based, human; conditions: inhibitor pre-treatment 30 minutes, anti-CD3/CD28 5 minutes
Method: as §3, §4

CD69 expression [6] = assay: CD69 expression by flow cytometry in P116-ZAP70-R360P cells; type: cell-based, human; conditions: inhibitor pre-treatment
Description: (§5) To examine the efficacy of staurosporine and AZD7762 in inhibiting pathological T cell activation, we used a disease model where T cell activation is mediated by ZAP70-R360P mutation, a main cause of a severe human autoimmune syndrome^4. We introduced wild type ZAP70 or the R360P-mutant of ZAP70 into ZAP70-deficient P116 T cells (FIG. 6G). ZAP70-R360P led to enhanced T cell auto-activation compared to wild type ZAP70 (FIG. 6H).
as §4, with “(n>150 for each group, One-way ANOVA, ****P<0.0001).” left out, “groups.” for “groups. (n>200 for each group, One-way ANOVA, ****P<0.0001).”

pLAT (Y191) = pLAT (Y191) in P116-ZAP70 R360P cells; type: cell-based, human; conditions: inhibitor pre-treatment
Description: as §5
as §4, with “(n>150 for each group, One-way ANOVA, ****P<0.0001).” left out, “groups.” for “groups. (n>200 for each group, One-way ANOVA, ****P<0.0001).”

pZAP70 (Y493) [7] = assay: pZAP70 (Y493) in P116-ZAP70 R360P cells; type: cell-based, human; conditions: inhibitor pre-treatment
Description: as §5
as §4, with “(n>150 for each group, One-way ANOVA, ****P<0.0001).” left out, “groups.” for “groups. (n>200 for each group, One-way ANOVA, ****P<0.0001).”

| Compound | FRET ratio response of ZAP70 saFRET biosensor (active kinase domain) to inhibitor [1] | inhibition of ZAP70 activity (FRET ratio change compared to solvent control) (ZAP70 kinase) | expression of CD69 (CD69 expression [3]) | phosphorylated LAT (Y191) [4] | phosphorylated ZAP70 (Y493) (pZAP70 (Y493) [5]) | activation of T cells marked by CD69 (CD69 expression [6]) | phosphorylation of LAT (Y191) (pLAT (Y191)) | phosphorylation of ZAP70 (pZAP70 (Y493) [7]) | also measured |
| --- | --- | --- | --- | --- | --- | --- | --- | --- | --- |
| Cn1cc(-c2nc(N[C@@H]3CCCC[C@@H]3N)c(F)c3c2C(=O)NC3)cn1 [TAK-659] | specifically responded; also recorded: significant FRET ratio change |  |  |  |  |  |  |  | inhibition of ZAP70 activity (FRET ratio change compared to solvent control) (ZAP70 kinase; listed as TAK659): could not reduce the FRET ratio significantly; average FRET ratio reduction (ZAP70 kinase; 25 μM, stable HEK cell line, ZAP70 saFRET biosensor): approximately 25%; TAK-659-induced FRET response of ZAP70 saFRET biosensor with kinase-dead domain [2]: abolished; also recorded: did not show any response; TAK-659-induced FRET response of ZAP70 saFRET biosensor with kinase-dead domain ([2]; listed as TAK659): no response |
| COc1ccc2cc(-c3nc(-c4ccc([S+](C)[O-])cc4)[nH]c3-c3ccncc3)ccc2c1 (stereo not shown) [Tie2 kinase inhibitor] |  | effectively inhibit |  |  |  |  |  |  |  |
| NC(=O)Nc1cc(-c2cccc(F)c2)sc1C(=O)N[C@H]1CCCNC1 [AZD7762] |  | effectively inhibit | suppressed | Significant reductions | Significant reductions | significantly inhibited | significantly inhibited | significantly inhibited |  |
| CC(C)(C)n1nc(-c2ccc(Cl)cc2)c2c(N)ncnc21 [PP2] | not |  |  |  |  |  |  |  |  |
| Cc1[nH]c(/C=C2\C(=O)Nc3ccc(S(=O)(=O)Cc4c(Cl)cccc4Cl)cc32)c(C)c1C(=O)N1CCC[C@@H]1CN1CCCC1 [PHA665752] |  |  |  |  |  |  |  |  | FRET ratio change with saFRETkd in counter screening ([2]; 10 μM library inhibitors, kinase-dead biosensor): nonspecific reduction of FRET ratio |
| CN[C@@H]1C[C@H]2O[C@@](C)([C@@H]1OC)n1c3ccccc3c3c4c(c5c6ccccc6n2c5c31)C(=O)NC4 [Staurosporine] |  | effectively inhibit | suppressed | Significant reductions | Significant reductions | significantly inhibited | significantly inhibited | significantly inhibited |  |
